# Where “and” joins values, the source holds several entries; their conditions need not be identical. Equal values may be shown once.
# How the values were obtained:
# [1] = human free (unbound) effective therapeutic plasma concentration used to calculate multiples; cited from earlier work
# [2] = test system: hERG; details: ref Rampe et al., 1998; Qu and Vargas, 2015; cited from earlier work
# [3] = test system: human ventricular trabeculae; assay: Action potential recording and pro-arrhythmic score analysis in human ventricular trabeculae (hVT);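 note: sharp microelectrode action potential recordings at 37°C in Tyrode-perfused trabeculae, 4 cumulative concentrations each applied 31 min, values averaged over last 30 APs, vehicle 0.1% DMSO as control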
# Description: Briefly, the human heart was transferred into a dissection vessel containing a cold (4°C), fresh proprietary dissection solution. The heart was maintained completely submerged in dissection solution. Ventricular trabeculae were dissected and transferred to the recording chamber.
# Briefly, a single tissue was mounted into the experimental chamber filled with oxygenated Tyrode's external solution. The temperature of the solution was maintained at 37°C with flow rate at 5 mL per minute. The tissue was allowed to equilibrate for 30–60 min with stimulation (3 V, 3 ms) at a frequency of 1.0 Hz. High impedance borosilicate microelectrodes were prepared with a tip resistance of 10–20 MΩ once filled with 3 M KCl. Upon tissue impalement, the membrane potential was allowed to stabilize (typically, around −85 mV). Tissues with resting membrane potentials more positive than −75 mV were rejected. Bipolar stimulation at 1.5x threshold was applied and recordings were performed in continuous mode with sampling at 20 kHz using ADInstruments and LabChart Software.
# Interruption of perfusion/oxygenation; (2). Absence of Aps following stimulation at baseline; (3). Time frame of drug exposure not respected; (4). Unstable response to stimulation at baseline; (5). Resting membrane potential (RMP) > −75 mV; 7). Maximal amplitude of AP (AMAX) <70 mV; 8). AP duration at 90% repolarization (APD90) <200 ms or >450 ms.
# Experimental Procedure: Each test article was evaluated at 4 concentrations in 4 ventricular trabeculae derived from a minimum of 2 donor hearts. Testing concentrations were chosen based upon human free ETPC, aiming to cover 1–100-fold of human free ETPC. […] Briefly, following stabilization of each tissue, APs were collected and assessed for 31 min in vehicle control solution (Tyrode with 0.1% DMSO) at stimulation frequencies of 1 Hz for 25 min, 2 Hz for 3 min and then 1 Hz for 3 min. Following this vehicle control period, 4 concentrations of a test compound were applied sequentially and cumulatively. Each concentration was applied for 31 min with the same stimulation sequence as in vehicle controls.
# For each frequency tested, the last 30 APs acquired at the end of the period were averaged for vehicle controls and for each test article concentration. Analysis at 1 Hz included only the last 30 APs of the initial 25-min incubation period. The following AP parameters and pro-arrhythmia variables were analyzed offline upon the completion of recordings:
# • RMP (mV) • AMAX (mV) • AP duration at percent repolarization (APD20, APD30, APD50, APD60, APD90) (ms) • Short term variability analysis of AP duration (STV): Beat-to-beat variability of repolarization was quantified as STV from APD90 Poincare plots over a period of 30 sec.
# Compound effects were quantified relative to the data collected during the vehicle control period (see Figure 1). […] Additionally, based on AnaBios historical data, threshold values for changes over baseline control for AP instability, APD alternans, Maximum APD dispersion and ERP (APD) were based upon an effect level of 10%. When applicable, differences were tested for statistical significance using the unpaired Student's t-test. A value of P < 0.05 was considered significant.
# AP parameters and pro-arrhythmia variables were combined into a meaningful, single score to assess the pro-arrhythmic risk of a compound at each concentration tested. The pro-arrhythmic potential of compounds at 1 or 2 Hz was determined by assigning a weighted scale to each variable (Table 1).
# [4] = test system: human ventricular trabeculae; set-up: method as in Page et al., 2016; details: 0.1 uM; ref Page et al., 2016; cited from earlier work
# [5] = 1Hz, 1.5-FOLD free ETPC (0.002µM)
# [6] = 1Hz, 15-FOLD free ETPC (0.002µM)
# [7] = 1Hz, 150-FOLD free ETPC (0.002µM)
# [8] = 1Hz, 1500-FOLD free ETPC (0.002µM)
# [9] = 2Hz, 1.5-FOLD free ETPC (0.002µM)
# [10] = 2Hz, 15-FOLD free ETPC (0.002µM)
# [11] = 2Hz, 150-FOLD free ETPC (0.002µM)
# [12] = 2Hz, 1500-FOLD free ETPC (0.002µM)
# [13] = average raw data, 1Hz, c2-c5: 1.5-, 15-, 150-, 1500-FOLD free ETPC (0.002µM)
# [14] = 1Hz, c1-c4: 1.5-, 5-, 15-, 150-FOLD free ETPC (0.002µM)
# [15] = 2Hz, c1-c4: 1.5-, 5-, 15-, 150-FOLD free ETPC (0.002µM)
# [16] = average raw data, 1Hz, c2-c5: 1.5-, 5-, 15-, 150-FOLD free ETPC (0.002µM)
# [17] = average raw data, 2Hz, c2-c5: 1.5-, 5-, 15-, 150-FOLD free ETPC (0.002µM)
smiles,measurement,setting,value
"O=C1NCCN1CCN1CCC(c2cn(-c3ccc(F)cc3)c3ccc(Cl)cc23)CC1 [SERTINDOLE, Sertindole]",Free ETPC,[1],0.002 µM
same,hERG IC50,[2],sub-micromolar
same,AMAX percentage change compared to vehicle control,[3]; [5],5%
same,APD30 percentage change compared to vehicle control,[3]; [5],6%
same,APD50 percentage change compared to vehicle control,[3]; [5],6%
same,APD90 percentage change compared to vehicle control,[3]; [5],5%
same,Alternans percentage change compared to vehicle control,[3]; [5],54%
same,Beat Escape percentage change compared to vehicle control,[3]; [5],0%
same,EADs percentage change compared to vehicle control,[3]; [5],0%
same,ERP percentage change compared to vehicle control,[3]; [5],1%
same,Max Dispersion percentage change compared to vehicle control,[3]; [5],-15%
same,RMP percentage change compared to vehicle control,[3]; [5],1%
same,Refractoriness Escape percentage change compared to vehicle control,[3]; [5],0%
same,STV percentage change compared to vehicle control,[3]; [5],31%
same,Triangulation percentage change compared to vehicle control,[3]; [5],4%
same,AMAX percentage change compared to vehicle control,[3]; [6],5%
same,APD30 percentage change compared to vehicle control,[3]; [6],-1%
same,APD50 percentage change compared to vehicle control,[3]; [6],0%
same,APD90 percentage change compared to vehicle control,[3]; [6],0%
same,Alternans percentage change compared to vehicle control,[3]; [6],-5%
same,Beat Escape percentage change compared to vehicle control,[3]; [6],0%
same,EADs percentage change compared to vehicle control,[3]; [6],0%
same,ERP percentage change compared to vehicle control,[3]; [6],3%
same,Max Dispersion percentage change compared to vehicle control,[3]; [6],-35%
same,RMP percentage change compared to vehicle control,[3]; [6],3%
same,Refractoriness Escape percentage change compared to vehicle control,[3]; [6],0%
same,STV percentage change compared to vehicle control,[3]; [6],0%
same,Triangulation percentage change compared to vehicle control,[3]; [6],3%
same,AMAX percentage change compared to vehicle control,[3]; [7],5%
same,APD30 percentage change compared to vehicle control,[3]; [7],4%
same,APD50 percentage change compared to vehicle control,[3]; [7],6%
same,APD90 percentage change compared to vehicle control,[3]; [7],7%
same,Alternans percentage change compared to vehicle control,[3]; [7],31%
same,Beat Escape percentage change compared to vehicle control,[3]; [7],0%
same,EADs percentage change compared to vehicle control,[3]; [7],0%
same,ERP percentage change compared to vehicle control,[3]; [7],7%
same,Max Dispersion percentage change compared to vehicle control,[3]; [7],-3%
same,RMP percentage change compared to vehicle control,[3]; [7],2%
same,Refractoriness Escape percentage change compared to vehicle control,[3]; [7],0%
same,STV percentage change compared to vehicle control,[3]; [7],23%
same,Triangulation percentage change compared to vehicle control,[3]; [7],12%
same,AMAX percentage change compared to vehicle control,[3]; [8],4%
same,APD30 percentage change compared to vehicle control,[3]; [8],1%
same,APD50 percentage change compared to vehicle control,[3]; [8],6%
same,APD90 percentage change compared to vehicle control,[3]; [8],8%
same,Alternans percentage change compared to vehicle control,[3]; [8],-12%
same,Beat Escape percentage change compared to vehicle control,[3]; [8],0%
same,EADs percentage change compared to vehicle control,[3]; [8],0%
same,ERP percentage change compared to vehicle control,[3]; [8],13%
same,Max Dispersion percentage change compared to vehicle control,[3]; [8],-30%
same,RMP percentage change compared to vehicle control,[3]; [8],3%
same,Refractoriness Escape percentage change compared to vehicle control,[3]; [8],0%
same,STV percentage change compared to vehicle control,[3]; [8],-24%
same,Triangulation percentage change compared to vehicle control,[3]; [8],19%
same,AMAX,[3]; [9],109
same,AMAX percentage change compared to vehicle control,[3]; [9],3%
same,APD30,[3]; [9],104
same,APD30 percentage change compared to vehicle control,[3]; [9],-1%
same,APD50,[3]; [9],139
same,APD50 percentage change compared to vehicle control,[3]; [9],0%
same,APD90,[3]; [9],197
same,APD90 percentage change compared to vehicle control,[3]; [9],0%
same,Alternans,[3]; [9],1.61
same,Alternans percentage change compared to vehicle control,[3]; [9],93%
same,Beat Escape,[3]; [9],0
same,Beat Escape percentage change compared to vehicle control,[3]; [9],0%
same,EADs,[3]; [9],0
same,EADs percentage change compared to vehicle control,[3]; [9],0%
same,ERP,[3]; [9],0.43
same,ERP percentage change compared to vehicle control,[3]; [9],2%
same,Max Dispersion,[3]; [9],4.87
same,Max Dispersion percentage change compared to vehicle control,[3]; [9],7%
same,RMP,[3]; [9],-85
same,RMP percentage change compared to vehicle control,[3]; [9],1%
same,Refractoriness Escape,[3]; [9],0
same,Refractoriness Escape percentage change compared to vehicle control,[3]; [9],0%
same,STV,[3]; [9],1.20
same,Triangulation,[3]; [9],93
same,Triangulation percentage change compared to vehicle control,[3]; [9],1%
same,AMAX,[3]; [10],110
same,AMAX percentage change compared to vehicle control,[3]; [10],4%
same,APD30,[3]; [10],104
same,APD30 percentage change compared to vehicle control,[3]; [10],-1%
same,APD50,[3]; [10],139
same,APD50 percentage change compared to vehicle control,[3]; [10],0%
same,APD90,[3]; [10],199
same,APD90 percentage change compared to vehicle control,[3]; [10],1%
same,Alternans,[3]; [10],0.69
same,Alternans percentage change compared to vehicle control,[3]; [10],-17%
same,Beat Escape,[3]; [10],0
same,Beat Escape percentage change compared to vehicle control,[3]; [10],0%
same,EADs,[3]; [10],0
same,EADs percentage change compared to vehicle control,[3]; [10],0%
same,ERP,[3]; [10],0.44
same,ERP percentage change compared to vehicle control,[3]; [10],4%
same,Max Dispersion,[3]; [10],3.50
same,Max Dispersion percentage change compared to vehicle control,[3]; [10],-23%
same,RMP,[3]; [10],-87
same,RMP percentage change compared to vehicle control,[3]; [10],3%
same,Refractoriness Escape,[3]; [10],0
same,Refractoriness Escape percentage change compared to vehicle control,[3]; [10],0%
same,STV,[3]; [10],0.48
same,Triangulation,[3]; [10],95
same,Triangulation percentage change compared to vehicle control,[3]; [10],3%
same,AMAX,[3]; [11],110
same,AMAX percentage change compared to vehicle control,[3]; [11],5%
same,APD30,[3]; [11],112
same,APD30 percentage change compared to vehicle control,[3]; [11],6%
same,APD50,[3]; [11],150
same,APD50 percentage change compared to vehicle control,[3]; [11],8%
same,APD90,[3]; [11],214
same,APD90 percentage change compared to vehicle control,[3]; [11],9%
same,Alternans percentage change compared to vehicle control,[3]; [11],30%
same,Beat Escape,[3]; [11],0
same,Beat Escape percentage change compared to vehicle control,[3]; [11],0%
same,EADs,[3]; [11],0
same,EADs percentage change compared to vehicle control,[3]; [11],0%
same,ERP,[3]; [11],0.45
same,ERP percentage change compared to vehicle control,[3]; [11],7%
same,Max Dispersion,[3]; [11],3.78
same,Max Dispersion percentage change compared to vehicle control,[3]; [11],-17%
same,RMP,[3]; [11],-87
same,RMP percentage change compared to vehicle control,[3]; [11],3%
same,Refractoriness Escape,[3]; [11],0
same,Refractoriness Escape percentage change compared to vehicle control,[3]; [11],0%
same,STV,[3]; [11],0.78
same,Triangulation,[3]; [11],103
same,Triangulation percentage change compared to vehicle control,[3]; [11],12%
same,AMAX,[3]; [12],110
same,AMAX percentage change compared to vehicle control,[3]; [12],4%
same,APD30,[3]; [12],107
same,APD30 percentage change compared to vehicle control,[3]; [12],1%
same,APD50,[3]; [12],150
same,APD50 percentage change compared to vehicle control,[3]; [12],8%
same,APD90,[3]; [12],221
same,APD90 percentage change compared to vehicle control,[3]; [12],12%
same,Alternans,[3]; [12],0.59
same,Alternans percentage change compared to vehicle control,[3]; [12],-29%
same,Beat Escape,[3]; [12],0
same,Beat Escape percentage change compared to vehicle control,[3]; [12],0%
same,EADs,[3]; [12],0
same,EADs percentage change compared to vehicle control,[3]; [12],0%
same,ERP,[3]; [12],0.48
same,ERP percentage change compared to vehicle control,[3]; [12],13%
same,Max Dispersion,[3]; [12],2.80
same,Max Dispersion percentage change compared to vehicle control,[3]; [12],-39%
same,RMP,[3]; [12],-87
same,RMP percentage change compared to vehicle control,[3]; [12],3%
same,Refractoriness Escape,[3]; [12],0
same,Refractoriness Escape percentage change compared to vehicle control,[3]; [12],0%
same,STV,[3]; [12],0.42
same,Triangulation,[3]; [12],114
same,Triangulation percentage change compared to vehicle control,[3]; [12],23%
same,TdP identification by pro-arrhythmic score,"[3]; at 10-fold human free ETPC, score >10 unsafe, <10 safe",TdP negative
same,AMAX,[3]; [13],112 mV and 111 mV
same,APD30,[3]; [13],159 ms and 150 ms and 158 ms and 153 ms
same,APD50,[3]; [13],205 ms and 195 ms and 207 ms and 206 ms
same,APD90,[3]; [13],272 ms and 261 ms and 279 ms and 282 ms
same,Alternans,[3]; [13],0.83 and 0.51 and 0.71 and 0.47
same,Beat Escape,[3]; [13],0
same,EADs,[3]; [13],0
same,ERP,[3]; [13],0.41 and 0.42 and 0.44 and 0.46
same,Max Dispersion,[3]; [13],3.13 and 2.38 and 3.55 and 2.58
same,Refractoriness Escape,[3]; [13],0
same,STV,[3]; [13],0.54 and 0.39 and 0.47 and 0.31
same,Triangulation,[3]; [13],113 and 111 and 121 and 129
"CN(CCOc1ccc(NS(C)(=O)=O)cc1)CCc1ccc(NS(C)(=O)=O)cc1 [DOFETILIDE, Dofetilide]",EAD,"[3]; 0.003, 0.01, 0.03, and 0.3 μM, total of 4 trabeculae",without any EAD
same,Beat Escape incidence,[3]; [14],0%
same,EADs incidence,[3]; [14],0%
same,Refractoriness Escape incidence,[3]; [14],0%
same,EADs incidence,[3]; [15],0%
same,Refractoriness Escape incidence,[3]; [15],0%
same,AMAX,[3]; [16],106 mV and 107 mV
same,APD90,[3]; [16],274 ms and 303 ms and 385 ms and 510 ms
same,Beat Escape,[3]; [16],0
same,EADs,[3]; [16],0
same,ERP,[3]; [16],0.43 and 0.47 and 0.52 and 0.59
same,Refractoriness Escape,[3]; [16],0
same,AMAX,[3]; [17],102 mV and 100 mV and 101 mV
same,APD90,[3]; [17],216 ms and 251 ms and 296 ms and 411 ms
same,EADs,[3]; [17],0
same,ERP,[3]; [17],0.44 and 0.49 and 0.52 and 0.56
same,Refractoriness Escape,[3]; [17],0
same,APD90 prolongation,[4],~ 100%
